Results taken from patent US20250170130A1, “MODULATORS OF MYC FAMILY PROTO-ONCOGENE PROTEIN” (Nalo Therapeutics, priority 2022, published 2025).

Assays:
MycN = molecular target: T1, MycN (Homo sapiens, UniProt P04198); assay: Degradation of MycN protein in SK-N-BE(2) cells, JESS/Western blot of lysates; format: cell-based; details: SKNBE2, 24 h, SKNBE2 cells, 24 h; for Dmax at 0.5 µM: read-out: % Degradation of MycN (SKNBE2) 24 h, 0.5 μM; for Dmax at 1 µM: read-out: % Degradation of MycN (SKNBE2) 24 h, 1 μM; for Dmax at 3 µM: read-out: % Degradation of MycN (SKNBE2) 24 h, 3 μM; for Dmax at 6 µM: read-out: % Degradation of MycN (SKNBE2) 24 h, 6 μM
T1 construct: endogenous in cells; host or cells: SK-N-BE(2)
T1 sequence (P04198 1-464): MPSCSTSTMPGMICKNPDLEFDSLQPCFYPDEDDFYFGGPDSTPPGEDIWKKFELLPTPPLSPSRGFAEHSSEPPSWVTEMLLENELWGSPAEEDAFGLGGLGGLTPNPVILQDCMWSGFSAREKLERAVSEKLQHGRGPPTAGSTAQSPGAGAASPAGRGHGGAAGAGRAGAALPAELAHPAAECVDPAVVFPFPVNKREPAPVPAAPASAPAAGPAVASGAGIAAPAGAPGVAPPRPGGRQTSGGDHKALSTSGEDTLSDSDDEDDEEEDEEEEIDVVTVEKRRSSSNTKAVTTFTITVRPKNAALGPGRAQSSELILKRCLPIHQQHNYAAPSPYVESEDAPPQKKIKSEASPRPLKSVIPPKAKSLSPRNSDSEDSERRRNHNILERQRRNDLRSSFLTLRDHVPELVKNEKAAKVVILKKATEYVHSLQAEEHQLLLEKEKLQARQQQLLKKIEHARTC
Outline: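 SK-N-BE(2) adherent cells (5E5 per well of a 6 well dish) were grown 24 hrs, then exposed to compounds diluted 1 in 20 in media, with DMSO controls, for 24 hrs. Cells were scraped, pelleted, PBS washed and lysed in RIPA buffer cocktail; after BCA protein quantitation, n-myc was detected by chemiluminescence on JESS/Western blot with tubulin and GAPDH loading controls read in the near infra red channel.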

MycC = molecular target: T2, MycC (Homo sapiens, UniProt P01106); assay: Degradation of MycC protein in L363 cells, JESS/Western blot of lysates; format: cell-based; details: L-363, 24 h, L-363 cells, 24 h; for Dmax at 0.5 µM: read-out: % Degradation of MycC (L-363) 24 h, 0.5 μM; for Dmax at 1 µM: read-out: % Degradation of MycC (L-363) 24 h, 1 μM; for Dmax at 3 µM: read-out: % Degradation of MycC (L-363) 24 h, 3 μM; for Dmax at 6 µM: read-out: % Degradation of MycC (L-363) 24 h, 6 μM
T2 construct: endogenous in cells; host or cells: L363
T2 sequence (P01106 whole entry): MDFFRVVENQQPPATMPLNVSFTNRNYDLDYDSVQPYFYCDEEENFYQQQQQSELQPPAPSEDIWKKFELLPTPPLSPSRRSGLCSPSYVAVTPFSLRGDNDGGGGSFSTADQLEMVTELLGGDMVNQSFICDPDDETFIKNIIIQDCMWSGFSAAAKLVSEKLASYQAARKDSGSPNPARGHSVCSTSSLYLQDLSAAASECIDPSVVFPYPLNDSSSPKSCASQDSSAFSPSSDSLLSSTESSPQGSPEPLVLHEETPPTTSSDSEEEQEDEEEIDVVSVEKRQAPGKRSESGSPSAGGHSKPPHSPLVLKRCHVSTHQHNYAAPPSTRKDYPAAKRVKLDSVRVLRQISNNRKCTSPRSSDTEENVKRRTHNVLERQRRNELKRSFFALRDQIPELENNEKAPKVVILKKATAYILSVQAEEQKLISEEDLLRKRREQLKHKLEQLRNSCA
Outline: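 L363 suspension cells were seeded at 1E6 cells per well and exposed to compound (stock 10 mM in DMSO) for 24 hrs. Cells were collected, spun down, rinsed with PBS, lysed in RIPA buffer cocktail on ice, clarified and kept at −80 degrees. Lysate protein was quantified by BCA, and c-myc was measured on JESS by chemiluminescence with tubulin and GAPDH loading controls in the NIR channel.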

| SMILES | Dmax at 0.5 µM (MycN) | Dmax at 1 µM (MycN) | Dmax at 3 µM (MycN) | Dmax at 6 µM (MycN) | Dmax at 0.5 µM (MycC) | Dmax at 1 µM (MycC) | Dmax at 3 µM (MycC) | Dmax at 6 µM (MycC) |
| --- | --- | --- | --- | --- | --- | --- | --- | --- |
| c1cc(Nc2cc(C3CC3)[nH]n2)nc(N2CC3(CNC3)C2)n1 [Compound 6, N-(5-Cyclopropyl-1H-pyrazol-3-yl)-2-(2,6-diazaspiro[3.3]heptan-2-yl)pyrimidin-4-amine] | < 20% | < 20% | < 20% | < 20% | < 20% | 20 to 49% | < 20% | 20 to 49% |
| c1cc(Nc2cc(C3CC3)[nH]n2)nc(N2CCC3(CCNC3)C2)n1 (stereo not drawn) [Compound 42, N-(5-Cyclopropyl-1H-pyrazol-3-yl)-2-(2,7-diazaspiro[4.4]nonan-2-yl)pyrimidin-4-amine] | 20 to 49% | 50 to 79% | 50 to 79% | 80 to 100% | < 20% | < 20% |  | 80 to 100% |
| NC[C@H]1CCN(c2nccc(Nc3cc(C4CCCC4)[nH]n3)n2)C1 [Compound 23, 2-[(3R)-3-(aminomethyl)pyrrolidin-1-yl]-N-(5-cyclopentyl-1H-pyrazol-3-yl)pyrimidin-4-amine] | 20 to 49% | 50 to 79% | 80 to 100% | 80 to 100% |  |  | 80 to 100% | 80 to 100% |

The next lines start with the values.

| Dmax at 0.5 µM (MycN) | Dmax at 1 µM (MycN) | Dmax at 3 µM (MycN) | Dmax at 6 µM (MycN) | Dmax at 0.5 µM (MycC) | Dmax at 1 µM (MycC) | Dmax at 3 µM (MycC) | Dmax at 6 µM (MycC) | SMILES |
| --- | --- | --- | --- | --- | --- | --- | --- | --- |
| 20 to 49% | 50 to 79% | 80 to 100% | 80 to 100% | 20 to 49% | 20 to 49% | 80 to 100% | 80 to 100% | CNCC12CC(C1)N(c1nccc(Nc3cc(C4CCC4)[nH]n3)n1)C2 [Compound 81, N-(5-Cyclobutyl-1H-pyrazol-3-yl)-2-[4-(methylaminomethyl)-2-azabicyclo[2.1.1]hexan-2-yl]pyrimidin-4-amine] |
| < 20% | < 20% | 80 to 100% | 80 to 100% | < 20% | < 20% | 80 to 100% | 80 to 100% | CS(=O)(=O)CCNCC12CC(C1)N(c1nccc(Nc3cc(C4CCCC4)[nH]n3)n1)C2 [Compound 68, N-(5-Cyclopentyl-1H-pyrazol-3-yl)-2-[4-[(2-methylsulfonylethylamino)methyl]-2-azabicyclo[2.1.1]hexan-2-yl]pyrimidin-4-amine] |
|  | 80 to 100% | 80 to 100% | 80 to 100% | < 20% | < 20% |  | 50 to 79% | c1cc(Nc2cc(C3CCCC3)[nH]n2)nc(N2CCC(C3CNC3)C2)n1 (stereo not drawn) [Compound 28, 2-[3-(azetidin-3-yl)pyrrolidin-1-yl]-N-(5-cyclopentyl-1H-pyrazol-3-yl)pyrimidin-4-amine] |
| 20 to 49% | 20 to 49% | 20 to 49% | 50 to 79% | < 20% | 20 to 49% | 20 to 49% | 50 to 79% | NC[C@H]1CN(c2nccc(Nc3cc(C4CCCC4)[nH]n3)n2)CCO1 [Compound 187, 2-[(2S)-2-(Aminomethyl)morpholin-4-yl]-N-(5-cyclopentyl-1H-pyrazol-3-yl)pyrimidin-4-amine] |
